Test results as given in patent US6576592B1, “Herbicide composition” (Sumitomo Chemical Company, Limited, priority 1999, dated 2003).
Counter-ions that a name gives are not always drawn.

Experiments:
yellow nutsedge = assay: Test Example 1: foliar treatment of pot-grown yellow nutsedge in greenhouse, herbicidal activity; format: in vivo, yellow nutsedge (Cyperus esculentus); conditions: sprayed over plants grown 26 days, examined 10 days after application, index 0 to 10
From the text: The values, “7”, “8”, “9”, and “10” of the herbicidal effect mean a excellent herbicidal effect.
(§1) Plastic pots each having a diameter of 11 cm and a depth of 8 cm were filled with upland soil, and then buried tubers of yellow nutsedge. And test plants were given 26 days to grow in greenhouse.An emulsifiable concentrate of compound A which had been obtained by well mixing 5 parts of compound A, 6 parts of Sorpol 3005X (produced by Toho Chemical Industry, Co., Ltd.) and 89 parts of xylene, a formulated glyphosate product (trade name: Roundup; seller, Monsanto Japan Limited), and a mixture of the emulsifiable concentrate of compound A and the formulated glyphosate product were independently diluted in their prescribed amounts with water. Each dilution was uniformly sprayed over the plants with a small sprayer, and then corn was further seeded. After the application the test plants were grown in the greenhouse for further 10 days and then, herbicidal activity and phytotoxicity to corn were examined.

corn = assay: Test Example 1: phytotoxicity to corn seeded after application; format: in vivo; design: key: “no harm” means that the phytotoxicity was unrecognizable or almost unrecognized; “small” means that a slight degree of phytotoxicity was recognized; “medium” means that a medium degree of phytotoxicity was recognized; “large” means that a large degree of phytotoxicity was recognized; conditions: corn seeded after spraying, examined after 10 days
Method: The phytotoxicity is evaluated like these, “no harm” means that the phytotoxicity was unrecognizable or almost unrecognized, “small” means that a slight degree of phytotoxicity was recognized, “medium” means that a medium degree of phytotoxicity was recognized, and “large” means that a large degree of phytotoxicity was recognized.
as §1

Row | SMILES | Herbicidal activity Yellow nutsedge (yellow nutsedge; dosage 120 g/ha) | Phytotoxicity Corn (corn; dosage 120 g/ha) | Herbicidal activity Yellow nutsedge (yellow nutsedge; dosage 560 g/ha) | Phytotoxicity Corn (corn; dosage 560 g/ha)
1 | COC(=O)C(C)Oc1cc(-n2c(=O)cc(C(F)(F)F)n(C)c2=O)c(F)cc1Cl (stereo not shown) [Compound A, methyl 2-[2-chloro-4-fluoro-5-{3-methyl-2,6-dioxo-4-(trifluoromethyl)-1,2,3,6-tetrahydropyrimidin-1-yl}phenoxy]propionate] | 4 | no harm |  | 
2 | O=C(O)CNCP(=O)(O)O [Glyphosate isopropylamine salt, N-(phosphonomethyl)glycine] |  |  | 1 | no harm
